# Test system: FLU A (PR/8/34)
# Experiment: Flu A Neuraminidase Antiviral Assay
# Format: cell-based
# Details: not given
row,Structure (SMILES),EC50 [nM]
1,"CN1C(=O)c2c(O)c(=O)ccn2N2C(c3ccccc3)CCCC12C (single isomer, unassigned) [Compound 59B, 7-hydroxy-4a,5-dimethyl-1-phenyl-1,2,3,4,4a,5-hexahydrodipyrido[1,2-b:2′,1′-f][1,2,4]triazine-6,8-dione]",12.1
2,"CCCC1CCC2N(C)C(=O)c3c(O)c(=O)ccn3N2C1(C)c1ccccc1 (single isomer, unassigned) [Compound 33A, 7-hydroxy-1,5-dimethyl-1-phenyl-2-propyl-1,2,3,4,4a,5-hexahydrodipyrido[1,2-b:2′,1′-f][1,2,4]triazine-6,8-dione]",49.5
3,"CC1CC2N(C)C(=O)c3c(O)c(=O)ccn3N2C(C)(c2ccccc2)C1 (single isomer, unassigned) [Compound 43D, 7-hydroxy-1,3,5-trimethyl-1-phenyl-1,2,3,4,4a,5-hexahydrodipyrido[1,2-b:2′,1′-f][1,2,4]triazine-6,8-dione]",7.8
4,"CN1C(=O)c2c(O)c(=O)ccn2N2C1CCCC2(C)c1ccncc1 (single isomer, unassigned) [Compound 31B, 7-hydroxy-1,5-dimethyl-1-(pyridin-4-yl)-1,2,3,4,4a,5-hexahydrodipyrido[1,2-b:2′,1′-f][1,2,4]triazine-6,8-dione]",> 8100
5,"CN1C(=O)c2c(O)c(=O)ccn2N2C(c3ccccc3F)C(CC(F)(F)F)CCC12 (single isomer, unassigned) [Compound 127B, 1-(2-fluorophenyl)-7-hydroxy-5-methyl-2-(2,2,2-trifluoroethyl)-1,2,3,4,4a,5-hexahydrodipyrido[1,2-b:2′,1′-f][1,2,4]triazine-6,8-dione]",3
6,"CN1C(=O)c2c(O)c(=O)ccn2N2C1CCC2(C)c1ccccc1Cl (single isomer, unassigned) [Compound 63B, 1-(2-chlorophenyl)-6-hydroxy-1,4-dimethyl-2,3,3a,4-tetrahydro-1H-pyrido[2,1-f]pyrrolo[1,2-b][1,2,4]triazine-5,7-dione]",160
7,"CN1C(=O)c2c(O)c(=O)ccn2N2C1CCC1(CC(F)(F)C1)C2c1ccccc1 (single isomer, unassigned) [Compound 74B, 3,3-difluoro-7′-hydroxy-5′-methyl-1′-phenyl-3′,4′,4a′,5′-tetrahydro-1′H-spiro[cyclobutane-1,2′-dipyrido[1,2-b:2′,1′-f][1,2,4]triazine]-6′,8′-dione]",15.7
8,"Cc1ccccc1C1C(CC(F)(F)F)CC(C)C2N(C)C(=O)c3c(O)c(=O)ccn3N12 (single isomer, unassigned) [Compound 79B, 7-hydroxy-4,5-dimethyl-1-(o-tolyl)-2-(2,2,2-trifluoroethyl)-1,2,3,4,4a,5-hexahydrodipyrido[1,2-b:2′,1′-f][1,2,4]triazine-6,8-dione]",2.3
9,"CCN1C(=O)c2c(O)c(=O)ccn2N2C1CCCC2(C)c1ccccc1 (single isomer, unassigned) [Compound 36A, 5-ethyl-7-hydroxy-1-methyl-1-phenyl-1,2,3,4,4a,5-hexahydrodipyrido[1,2-b:2′,1′-f][1,2,4]triazine-6,8-dione]",3.2
10,"CC1(c2nccs2)CCCC2N(CC(F)(F)F)C(=O)c3c(O)c(=O)ccn3N21 (single isomer, unassigned) [Compound 41B, 7-hydroxy-1-methyl-1-(thiazol-2-yl)-5-(2,2,2-trifluoroethyl)-1,2,3,4,4a,5-hexahydrodipyrido[1,2-b:2′,1′-f][1,2,4]triazine-6,8-dione]",11.1
11,"CN1C(=O)c2c(O)c(=O)ccn2N2C1CCCC21CCc2ccccc21 (single isomer, unassigned) [Compound 21C, 7-hydroxy-5-methyl-2′,3,3′,4,4a,5-hexahydro-2H-spiro[dipyrido[1,2-b:2′,1′-f][1,2,4]triazine-1,1′-indene]-6,8-dione]",1600
12,"CN1C(=O)c2c(O)c(=O)ccn2N2C(c3cccc4ccccc34)CCCC12 (single isomer, unassigned) [Compound 5B, 7-hydroxy-5-methyl-1-(naphthalen-1-yl)-1,2,3,4,4a,5-hexahydrodipyrido[1,2-b:2′,1′-f][1,2,4]triazine-6,8-dione]",1700
13,"CC(C1CCC2N(C)C(=O)c3c(O)c(=O)ccn3N2C1c1ccccc1)C(F)(F)F (single isomer, unassigned) [Compound 109A, 7-hydroxy-5-methyl-1-phenyl-2-(1,1,1-trifluoropropan-2-yl)-1,2,3,4,4a,5-hexahydrodipyrido[1,2-b:2′,1′-f][1,2,4]triazine-6,8-dione]",803
14,"CN1C(=O)c2c(O)c(=O)ccn2N2C(c3ccccc3)C(c3cc(F)c(F)cc3F)CCC12 (single isomer, unassigned) [Compound 86D, 7-hydroxy-5-methyl-1-phenyl-2-(2,4,5-trifluorophenyl)-1,2,3,4,4a,5-hexahydrodipyrido[1,2-b:2′,1′-f][1,2,4]triazine-6,8-dione]",> 810
15,"CN1C(=O)c2c(O)c(=O)ccn2N2C(c3ccccc3)C3CCCC(C3)C12 (single isomer, unassigned) [Compound 11B, 4-hydroxy-6-methyl-12-phenyl-6,6a,7,8,9,10,11,12-octahydro-7,11-methanopyrido[1′,2′:1,6][1,2,4]triazino[2,3-a]azocine-3,5-dione]",> 8100
16,"CN1C(=O)c2c(O)c(=O)ccn2N2C1CCCC21CCc2ccccc21 (single isomer, unassigned) [Compound 21A, 7-hydroxy-5-methyl-2′,3,3′,4,4a,5-hexahydro-2H-spiro[dipyrido[1,2-b:2′,1′-f][1,2,4]triazine-1,1′-indene]-6,8-dione]",> 8100
17,"CN1C(=O)c2c(O)c(=O)ccn2N2C(c3ccccc3)C(Cc3ccccc3)CCC12 (single isomer, unassigned) [Compound 117A, 2-benzyl-7-hydroxy-5-methyl-1-phenyl-1,2,3,4,4a,5-hexahydrodipyrido[1,2-b:2′,1′-f][1,2,4]triazine-6,8-dione]",3530
18,"CC1(c2ccccc2)CCCC2N(CC3COC3)C(=O)c3c(O)c(=O)ccn3N21 (single isomer, unassigned) [Compound 40B, 7-hydroxy-1-methyl-5-(oxetan-3-ylmethyl)-1-phenyl-1,2,3,4,4a,5-hexahydrodipyrido[1,2-b:2′,1′-f][1,2,4]triazine-6,8-dione]",> 8100
19,"CCCC1CCC2N(C)C(=O)c3c(O)c(=O)ccn3N2C1c1ccccc1C (single isomer, unassigned) [Compound 92B, 7-hydroxy-5-methyl-2-propyl-1-(o-tolyl)-1,2,3,4,4a,5-hexahydrodipyrido[1,2-b:2′,1′-f][1,2,4]triazine-6,8-dione]",3.3
20,"CN1C(=O)c2c(O)c(=O)ccn2N2C1CCC1(CCC(F)(F)C1)C2c1ccccc1 (single isomer, unassigned) [Compound 68B, 3,3-difluoro-7′-hydroxy-5′-methyl-1′-phenyl-3′,4′,4a′,5′-tetrahydro-1′H-spiro[cyclopentane-1,2′-dipyrido[1,2-b:2′,1′-f][1,2,4]triazine]-6′,8′-dione]",> 810
21,"CN1C(=O)c2c(O)c(=O)ccn2N2C1CCCC2(C)c1ccccc1F (single isomer, unassigned) [Compound 24B, 1-(2-fluorophenyl)-7-hydroxy-1,5-dimethyl-1,2,3,4,4a,5-hexahydrodipyrido[1,2-b:2′,1′-f][1,2,4]triazine-6,8-dione]",1240
22,"CN1C(=O)c2c(O)c(=O)ccn2N2C(c3ccccc3)C(c3cccc(F)c3F)CCC12 (single isomer, unassigned) [Compound 116A, 2-(2,3-difluorophenyl)-7-hydroxy-5-methyl-1-phenyl-1,2,3,4,4a,5-hexahydrodipyrido[1,2-b:2′,1′-f][1,2,4]triazine-6,8-dione]",6200
23,"CN1C(=O)c2c(O)c(=O)ccn2N2C1CCCC2(C)c1ccccn1 (single isomer, unassigned) [Compound 30B, 7-hydroxy-1,5-dimethyl-1-(pyridin-2-yl)-1,2,3,4,4a,5-hexahydrodipyrido[1,2-b:2′,1′-f][1,2,4]triazine-6,8-dione]",5300
24,"CN1C(=O)c2c(O)c(=O)ccn2N2C(c3ccccc3Cl)C(CC(F)(F)F)CCC12 (single isomer, unassigned) [Compound 119B, 1-(2-chlorophenyl)-7-hydroxy-5-methyl-2-(2,2,2-trifluoroethyl)-1,2,3,4,4a,5-hexahydrodipyrido[1,2-b:2′,1′-f][1,2,4]triazine-6,8-dione]",2.7

# Same assay, conditions: MDCK, 48 h
row,Structure (SMILES),EC50 [nM]
1,"CN1C(=O)c2c(O)c(=O)ccn2N2C(c3ccccc3)C(O)CCC12 (single isomer, unassigned) [Compound 135A, 2,7-dihydroxy-5-methyl-1-phenyl-1,2,3,4,4a,5-hexahydrodipyrido[1,2-b:2′,1′-f][1,2,4]triazine-6,8-dione]",428
2,"CS[C@H]1CC[C@@H](c2ccccc2)N2[C@@H]1N(C)C(=O)c1c(O)c(=O)ccn12 [Compound 147, (1S,4S,4aS)-7-hydroxy-5-methyl-4-(methylthio)-1-phenyl-1,2,3,4,4a,5-hexahydrodipyrido[1,2-b:2′,1′-f][1,2,4]triazine-6,8-dione]",16.8
3,"CN1C(=O)c2c(OCc3ccccc3)c(=O)ccn2N2C(c3ccccc3)CCCCCC12 (stereo not drawn) [Compound 58A, 4-(benzyloxy)-6-methyl-12-phenyl-6,6a,7,8,9,10,11,12-octahydropyrido[1′,2′:1,6][1,2,4]triazino[2,3-a]azocine-3,5-dione]",> 8100
4,"CN1C(=O)c2c(O)c(=O)ccn2N2C(c3cccc4ccccc34)CCCC12 (single isomer, unassigned) [Compound 5A, 7-hydroxy-5-methyl-1-(naphthalen-1-yl)-1,2,3,4,4a,5-hexahydrodipyrido[1,2-b:2′,1′-f][1,2,4]triazine-6,8-dione]",1530
5,"CC(C)CCO[C@@H]1CC[C@H]2N(C)C(=O)c3c(O)c(=O)ccn3N2[C@@H]1c1ccccc1 [Compound 161, (1R,2R,4aS)-7-hydroxy-2-(isopentyloxy)-5-methyl-1-phenyl-1,2,3,4,4a,5-hexahydrodipyrido[1,2-b:2′,1′-f][1,2,4]triazine-6,8-dione]",120
6,"CN1C(=O)c2c(O)c(=O)ccn2N2C(c3ccccc3)C(C3CC3(F)F)CCC12 (single isomer, unassigned) [Compound 105A, 2-(2,2-difluorocyclopropyl)-7-hydroxy-5-methyl-1-phenyl-1,2,3,4,4a,5-hexahydrodipyrido[1,2-b:2′,1′-f][1,2,4]triazine-6,8-dione]",413
